Entries after “also recorded” stand apart in the source; their conditions may differ. Where no end group is shown, it is not given here.
Assays:
β-wrapin AS10 [1] = conditions: cited from earlier work
Description: We have previously observed β-hairpins in amyloid-β (Aβ), α-synuclein (αSyn), and islet amyloid polypeptide (IAPP), amyloidogenic proteins associated with AD, PD, and T2D, respectively (Fig. 2), [38], [39]. These β-hairpins are established upon binding to engineered binding proteins termed β-wrapins. β-Wrapins are selected from protein libraries based on ZAβ3, an affibody with high affinity for monomeric Aβ [37], [39], [40], [41], [42]. β-Hairpin structures of Aβ, αSyn and IAPP have been determined by NMR spectroscopy of their complexes with ZAβ3 and the β-wrapins AS69 and ...

[2] = Thioflavin T (ThT) aggregation assay; assay type: physicochemical; conditions: for ThT fluorescence time course / ThT: 20 mM NaPi, pH 7.4, 50 mM NaCl, 37 °C, 25 µM ThT, triplicate; for ThT: peptide 20–550 µM, up to 85 h, 300 rpm, glass bead
Method: All ThT aggregation assays were done in Greiner 96-well half-area, clear bottom, low-binding plates. The measurements themselves were done in a BMG CLARIOstar plate reader at 37 °C and 300 rpm shaking in orbital mode with one glass bead (0.75–1 mm, Roth) per well. Wells with samples were always surrounded by wells filled with liquid, either other samples or 150 μl water, to counter potential artefacts due to evaporation. […] Final concentrations of 25 µM ThT and 0.04% sodium azide (NaN3) were added. The plate was sealed with sealing tape and put into the plate reader, heated to 37 °C, and ThT fluorescence was read in 1000 cycles of 300 s each using bottom optics with excitation at 448 nm (10 nm bandwidth) and emission at 482 nm (10 nm bandwidth). […] Samples contained 40 µM ThT and 0.04% NaN3.
Fig. 4 Test set of eight protein segments. (A) List of the investigated peptides. Underlined stretches in the peptide sequences correspond to the predicted amyloidogenic β-hairpins. A peptide was considered ‘soluble’ when no visible precipitation occurred upon dissolution of the lyophilized peptide in 20 mM NaPi, pH 7.4, 50 mM NaCl, to a final concentration of 20 µM. […] (B) Conformations of investigated segments (red) in the context of their source proteins.

β-wrapin AS10 [3] = assay: Isothermal titration calorimetry (ITC) of peptide binding to AS10; conditions: 30 °C, 30 µM AS10 in cell, peptide titrated from syringe, 20 mM sodium phosphate, pH 7.4, 50 mM NaCl, 1:1 binding model; for Kd: read-out: Affinity to AS10 (dissociation constant KD)
Method: ITC was performed at 30 °C using a Microcal iTC200 calorimeter (GE Healthcare). AS10 was filled into the cell at a concentration of 30 µM in 20 mM sodium phosphate, pH 7.4, 50 mM NaCl. Peptides were titrated from the syringe in approximately 10-fold higher concentrations. Heats of post-saturation injections were averaged and subtracted from each injection to correct for heats of dilution and mixing. Dissociation constants were obtained from a nonlinear least-squares fit to a 1:1 binding model using MicroCal Origin.

[4] = Atomic force microscopy (AFM) of samples at the end of ThT aggregation assays; assay type: physicochemical
Method: (§1) For AFM imaging, 2 μl samples were taken out of the wells at the end of the ThT aggregation assays, put onto a freshly cleaved muscovite mica surface and dried during incubation for 10 min under the clean bench. Subsequently, the samples were washed with 100 μl ddH2O in three steps and dried with a stream of N2 gas. Imaging was performed in intermittent contact mode (AC mode) in a JPK NanoWizard 3 atomic force microscope using a silicon cantilever with silicon tip (OMCL-AC160TS-R3, Olympus) with a typical tip radius of 9 ± 2 nm, a force constant of 26 N/m and resonance frequency around 300 kHz. The images were processed using JPK DP Data Processing Software (version spm-5.0.84).

PAP(248−286) = assay: ThT aggregation assay and AFM of PAP(248−286) in presence of added peptide; assay type: biochemical, human
Method: (§2) All ThT aggregation assays were done in Greiner 96-well half-area, clear bottom, low-binding plates. The measurements themselves were done in a BMG CLARIOstar plate reader at 37 °C and 300 rpm shaking in orbital mode with one glass bead (0.75–1 mm, Roth) per well. Wells with samples were always surrounded by wells filled with liquid, either other samples or 150 μl water, to counter potential artefacts due to evaporation. […] Final concentrations of 25 µM ThT and 0.04% sodium azide (NaN3) were added. The plate was sealed with sealing tape and put into the plate reader, heated to 37 °C, and ThT fluorescence was read in 1000 cycles of 300 s each using bottom optics with excitation at 448 nm (10 nm bandwidth) and emission at 482 nm (10 nm bandwidth). […] PAP(248−286) and SEM1(86−107) were kept at constant concentrations of 500 and 300 µM, respectively. […] Samples contained 40 µM ThT and 0.04% NaN3.
as §1

SEM1(86−107) = assay: ThT aggregation assay and AFM of SEM1(86−107) in presence of added peptide; assay type: biochemical, human
Method: as §2, §1

β-wrapin AS10 [5] = assay: 1H-15N HSQC NMR detection of β-hairpin formation upon AS10 binding; conditions: 25 °C; for NMR signature of β-hairpin folding coupled to AS10 binding (1H–15N HSQC of 15N-AS10): 100 µM 15N-AS10 mixed with 20% molar excess of peptide, pH 7.4
Method: The NMR spectra were acquired at 25 °C using VNMRS instruments (Varian) at proton frequencies of 800 and 900 MHz, each equipped with a cryogenically cooled Z-axis pulse-field-gradient (PFG) triple resonance probe. The sample buffer was 20 mM sodium phosphate, pH 7.4, 50 mM NaCl, supplemented with 10% D2O. For detection of complex formation, samples contained 100 μM ^15N-labeled AS10, expressed and purified as described, [43], and a 20% excess of the unlabeled peptide. For determination of β-sheet registries, NMR samples contained ^13C^15N-labeled fusion constructs in concentrations between 360–700 μM. Backbone assignments were obtained using BEST-TROSY experiments. Nuclear Overhauser effect (NOE) based distance restraints for β-sheet registry determination were derived from 3D (^1H–^1H-^15N)-NOESY-HSQC (120 ms mixing time) and (^1H–^13Cali-^1H)-HSQC-NOESY (100 ms mixing time) experiments. NMR data were processed using NMRPipe and analyzed with CcpNMR [50].
To test for β-hairpin formation in the peptides upon binding to AS10 we performed NMR spectroscopy. ^1H–^15N HSQC NMR spectroscopy using ^15N-labeled AS10 (^15N-AS10) and unlabeled binding partner leads to characteristic changes upon β-hairpin folding coupled to binding. These include a great increase in resonance dispersion, appearance of four amide proton resonances in the glycine region (^15N chemical shift <110 ppm) stemming from Gly-13 and Gly-14 in the two AS10-subunits, as well as appearance of amide proton resonances with shift values typical for β-sheet conformation (high ^1H and high ^15N chemical shifts).

[6] = peptide increased to 500–550 µM

Row | NMR signature of β-hairpin folding coupled to AS10 binding (1H–15N HSQC of 15N-AS10) (β-wrapin AS10 [5]) | Substance | Affinity for β-wrapin AS10 (β-wrapin AS10 [1]) | ThT fluorescence time course ([2]; 20–25 µM peptide) | ThT [2] | ThT fluorescence time course [2, 6] | Kd (β-wrapin AS10 [3]) | other results
1 |  | Aβ: amyloid-β, amyloidogenic protein associated with AD | sub-micromolar |  |  |  |  | 
2 |  | IAPP: islet amyloid polypeptide, amyloidogenic protein associated with T2D (KCNTATCATQRLANFLVHSSNNFGAILSSTNVGSNTY; Islet amyloid polypeptide; UniProt P10997 34-70, looked up) | sub-micromolar |  |  |  |  | 
3 |  | KDFIATLGKLSGLHGQDLFGIWSK [PAP(185−208)] |  | no increase in fluorescence intensity was detected | + | exhibited ThT fluorescence | 39 ± 5 µM | Peptide concentration sufficient for amyloid formation ([2]; ThT assay, Fig. 5D (550 µM, 20 mM NaPi, pH 7.4, 50 mM NaCl)): > 0.5 mM; ThT fluorescence of peptide alone ([2]; peptide alone 25–100 µM (up to 100 µM), 50 mM Tris, pH 8.5, 37 °C, 40 µM ThT): did not exhibit ThT fluorescence; also recorded: do not exhibit ThT fluorescene; AFM aggregate morphology ([4]; end of ThT aggregation assay in 20 mM NaPi, pH 7.4, 50 mM NaCl, dried on mica): fibrillar aggregates confirming amyloid formation were detected; AFM aggregate morphology of individual peptide ([4]; end of ThT assay at moderate peptide concentrations without ThT fluorescence, 50 mM Tris, pH 8.5): aggregates of amorphous shape; Effect of added peptide on ThT time trace of PAP(248−286) (PAP(248−286); 500 µM PAP(248−286), added peptide 25–100 µM, 50 mM Tris, pH 8.5, 37 °C, 40 µM ThT): ThT time traces featuring a lag-time and a phase of rapid growth indicative of amyloid formation; AFM morphology after co-incubation with PAP(248−286) (PAP(248−286); AFM at end of aggregation assay, 500 µM PAP(248−286) with PAP(185−208)): shift to fibrillar aggregate morphology; Effect of added peptide on ThT time trace of SEM1(86−107) (SEM1(86−107); 300 µM SEM1(86−107), added peptide 25–100 µM, 50 mM Tris, pH 8.5, 37 °C, 40 µM ThT): ThT time traces featuring a lag-time and a phase of rapid growth indicative of amyloid formation; AFM morphology after co-incubation with SEM1(86−107) (SEM1(86−107); AFM at end of aggregation assay, 300 µM SEM1(86−107) with PAP(185−208)): shift to fibrillar aggregate morphology
4 | no change | NBPF1(928−946): synthetic peptide of predicted β-hairpin-forming amyloidogenic segment 928−946 of NBPF1 (RSAFYILEQQRVGWALDMD) |  | no increase in fluorescence intensity was detected |  | remained ThT negative |  | Affinity to AS10 (dissociation constant KD) (β-wrapin AS10 [3]): heat signals were not observed
5 | signature was observed | TTC5(335−361): synthetic peptide of predicted β-hairpin-forming amyloidogenic segment 335−361 of TTC5 (AVILGKVVFSLTTEEKVPFTFGLVDSD) |  |  | + |  | 4.7 ± 0.9 µM | NMR β-hairpin (β-wrapin AS10 [5]; 100 µM 15N-AS10 with 20% molar excess of peptide, 20 mM sodium phosphate, pH 7.4, 50 mM NaCl): +

Reference: article PMC10787225 (Computational and Structural Biotechnology Journal, 2023)
